# Measurements as given in article PMC3241989, “ADP Regulates SNF1, the Saccharomyces cerevisiae Homolog of AMP-Activated Protein Kinase” (Cell Metabolism, 2011).
# Assays:
# [1] = target: T1, regulatory fragment of SNF1 (Snf4(1-322)Sip2(304-415)Snf1(457-633)) (Saccharomyces cerevisiae, UniProt P12904); test: X-ray crystallography, crystal soak; type: binding; details: site 4 of Snf4
# T1 construct: C-terminal domains of Snf1 and Sip2 with full-length Snf4 (1-322; b14 prints 1-332), tricistronic E. coli expression, His-tag removed with PreScission protease; with Carbon catabolite-derepressing protein kinase; SNF1 protein kinase subunit beta-2
# T1 sequence (P12904 1-322): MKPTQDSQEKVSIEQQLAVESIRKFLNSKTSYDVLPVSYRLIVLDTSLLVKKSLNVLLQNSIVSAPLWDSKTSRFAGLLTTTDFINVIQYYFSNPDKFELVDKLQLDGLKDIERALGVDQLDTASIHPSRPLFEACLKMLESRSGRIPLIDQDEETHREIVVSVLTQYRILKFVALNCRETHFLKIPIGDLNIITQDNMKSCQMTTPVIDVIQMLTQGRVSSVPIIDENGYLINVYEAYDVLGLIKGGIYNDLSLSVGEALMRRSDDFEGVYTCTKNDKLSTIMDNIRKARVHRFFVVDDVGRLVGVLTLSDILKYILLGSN
# T1 sequence (P34164 304-415 partner): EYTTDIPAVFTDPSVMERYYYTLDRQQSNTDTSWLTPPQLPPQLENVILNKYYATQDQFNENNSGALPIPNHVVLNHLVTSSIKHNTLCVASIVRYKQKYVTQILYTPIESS
# T1 sequence (P06782 457-633 partner): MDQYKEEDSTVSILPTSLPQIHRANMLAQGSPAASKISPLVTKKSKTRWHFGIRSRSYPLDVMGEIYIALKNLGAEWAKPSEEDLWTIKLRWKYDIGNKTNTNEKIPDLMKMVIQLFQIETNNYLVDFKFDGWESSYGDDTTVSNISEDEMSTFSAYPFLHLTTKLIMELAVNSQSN
# [2] = target: T2, SNF1 complex (Snf1(1-633)Gal83(1-417)Snf4(1-322)) (Saccharomyces cerevisiae, UniProt P12904); test: fluorescence competition against NADH; type: binding; details: phosphorylated SNF1, 20°C, 50 mM Tris pH 8, 100 mM NaCl, 1 mM TCEP
# T2 construct: full-length heterotrimer, His-tagged, expressed in E. coli, nickel-Sepharose; phosphorylated on Snf1 Thr210 by CaMKKbeta; with Carbon catabolite-derepressing protein kinase; SNF1 protein kinase subunit beta-3
# T2 sequence (P12904 1-322): T1 sequence (P12904 1-322)
# T2 sequence (P06782 1-633 partner): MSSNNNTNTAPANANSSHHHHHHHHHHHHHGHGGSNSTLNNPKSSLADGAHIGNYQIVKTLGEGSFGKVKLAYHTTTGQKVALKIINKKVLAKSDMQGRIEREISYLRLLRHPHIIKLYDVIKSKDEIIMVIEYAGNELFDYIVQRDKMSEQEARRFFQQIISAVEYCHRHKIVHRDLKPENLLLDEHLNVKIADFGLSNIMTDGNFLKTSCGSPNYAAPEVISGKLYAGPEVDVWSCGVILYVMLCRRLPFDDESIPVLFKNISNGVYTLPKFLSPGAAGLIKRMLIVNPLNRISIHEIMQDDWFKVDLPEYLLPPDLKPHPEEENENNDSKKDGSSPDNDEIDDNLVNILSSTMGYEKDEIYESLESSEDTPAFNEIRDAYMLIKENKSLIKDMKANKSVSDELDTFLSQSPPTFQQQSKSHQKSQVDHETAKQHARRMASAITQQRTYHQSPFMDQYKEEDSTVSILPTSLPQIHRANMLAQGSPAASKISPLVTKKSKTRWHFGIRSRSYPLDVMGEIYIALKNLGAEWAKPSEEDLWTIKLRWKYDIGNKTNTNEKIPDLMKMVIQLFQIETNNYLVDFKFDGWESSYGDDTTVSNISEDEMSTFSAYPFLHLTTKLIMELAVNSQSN
# T2 sequence (Q04739 1-417 partner): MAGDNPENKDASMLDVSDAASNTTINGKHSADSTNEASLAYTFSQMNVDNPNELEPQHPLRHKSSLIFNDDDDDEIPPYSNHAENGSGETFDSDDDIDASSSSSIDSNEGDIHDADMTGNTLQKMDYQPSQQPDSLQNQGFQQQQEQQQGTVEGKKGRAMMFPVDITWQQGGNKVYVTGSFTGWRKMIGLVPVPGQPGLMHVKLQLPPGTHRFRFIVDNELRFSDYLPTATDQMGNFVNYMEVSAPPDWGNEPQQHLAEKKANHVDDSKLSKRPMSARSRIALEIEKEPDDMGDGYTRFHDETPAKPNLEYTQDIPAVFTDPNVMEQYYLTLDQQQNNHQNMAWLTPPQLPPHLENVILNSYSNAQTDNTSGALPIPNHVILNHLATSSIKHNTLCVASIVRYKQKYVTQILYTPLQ
# [3] = target: T2, SNF1 complex (Snf1(1-633)Gal83(1-417)Snf4(1-322)); test: protection of Snf1 phospho-Thr210 against dephosphorylation by PP2C (western blot); type: biochemical; details: read-out: half-maximal effect
# [4] = target: T2, SNF1 complex (Snf1(1-633)Gal83(1-417)Snf4(1-322)); test: fluorescence titration of coumarin nucleotide with SNF1; type: binding; details: read-out: Kd,I
# [5] = no Mg, tight site, competitive with NADH, error is SD, read-out: Kd (μM) / Versus C-AXPs
SMILES,"X-ray crystallography, crystal soak [1]","Kd [2, 5] [µM]",other results
Nc1ncnc2c1ncn2[C@@H]1O[C@H](COP(=O)(O)OP(=O)(O)O)[C@@H](O)[C@H]1O [ADP],"strong, well-resolved electron density for AMP, ADP, and NADH",72,EC50 [3]: ~500 µM
Nc1ncnc2c1ncn2[C@@H]1O[C@H](COP(=O)(O)O)[C@@H](O)[C@H]1O [AMP],"strong, well-resolved electron density for AMP, ADP, and NADH",,
Nc1ncnc2c1ncn2[C@@H]1O[C@H](COP(=O)(O)OP(=O)(O)OP(=O)(O)O)[C@@H](O)[C@H]1O [ATP],,120,
"CCN(CC)c1ccc2cc(C(=O)N[C@H]3[C@@H](O)[C@H](n4cnc5c(N)ncnc54)O[C@@H]3COP(=O)(O)OP(=O)(O)O)c(=O)oc2c1 [C-ADP, 3′-(7-diethylaminocoumarin-3-carbonylamino)-3′-deoxyadenosine 5′ diphosphate]",,,Kd [4]: 9 µM
NC(=O)C1=CN([C@@H]2O[C@H](COP(=O)(O)OP(=O)(O)OC[C@H]3O[C@@H](n4cnc5c(N)ncnc54)[C@H](O)[C@@H]3O)[C@@H](O)[C@H]2O)C=CC1 [NADH],"strong, well-resolved electron density for AMP, ADP, and NADH",,
NC(=O)c1ccc[n+]([C@@H]2O[C@H](COP(=O)(O)OP(=O)(O)OC[C@H]3O[C@@H](n4cnc5c(N)ncnc54)[C@H](O)[C@@H]3O)[C@@H](O)[C@H]2O)c1 [NAD^+],,,Kd ([2]; read-out: Kd): > 250 µM
